Results as given in patent publication US12319655B2, “RAF kinase inhibitors and methods of use thereof” (Deciphera Pharmaceuticals, LLC, priority 2021, dated 2025).

Key:
[1] = biological target: B-Raf (V600E) (SEQ. ID NO: 4) kinase (Homo sapiens (Human), UniProt P15056, V600E); assay: Biochemical Assay for B-Raf (V600E) (1); conditions: Table J, BRAF V600E, assay version (1); read-out: BRAF VE (1) IC50
Outline: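 Serially diluted compounds tested against 0.03 nM enzyme with 30.1 nM MEK substrate and 1 mM ATP (Tris pH 7.5, 15 mM MgCl2), ATP use coupled to NADH loss via PK/LDH. A340 monitored continuously 6 h, 30 °C; IC50 fitted (four-parameter) from the 3–4 h rate versus no-compound and known-inhibitor controls.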

A375 cells = assay: A375 Cell Proliferation Assay (1); type: cell-based; conditions: Homo sapiens, A-375
Outline: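 Resazurin fluorescence (excitation 540 nm, emission 600 nm, after a further 5-6 h) gave IC50s from triplicate compound dilution series.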

[2] = biological target: C-Raf kinase (SEQ. ID NO: 3) (Homo sapiens (Human), UniProt P04049, Y340D/Y341D); assay: Biochemical Assay for C-Raf (1); conditions: Table J, assay version (1); read-out: CRAF (1) IC50
Outline: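 IC50 values come from a four-parameter fit of percent inhibition, using the reaction rate over 4–5 h of a 6 h continuous 340 nm read at 30 °C. The enzyme mix was C-Raf 0.43 nM, MEK substrate 30.1 nM and ATP 1 mM, in a PK/LDH NADH-coupled format in Tris pH 7.5 with 1% DMSO.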

WM3928 cells = assay: WM3928 Cell Proliferation Assay (1); type: cell-based
Outline: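 IC50 was derived from resazurin fluorescence (ex 540, em 600 nm) after a 6–7 h dye incubation. Before that, cells had 67–72 h of compound exposure at 37 °C, 5% CO2.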

B-Raf (V600E) (SEQ. ID NO: 4) kinase, sequence (P15056 416-766 V600E): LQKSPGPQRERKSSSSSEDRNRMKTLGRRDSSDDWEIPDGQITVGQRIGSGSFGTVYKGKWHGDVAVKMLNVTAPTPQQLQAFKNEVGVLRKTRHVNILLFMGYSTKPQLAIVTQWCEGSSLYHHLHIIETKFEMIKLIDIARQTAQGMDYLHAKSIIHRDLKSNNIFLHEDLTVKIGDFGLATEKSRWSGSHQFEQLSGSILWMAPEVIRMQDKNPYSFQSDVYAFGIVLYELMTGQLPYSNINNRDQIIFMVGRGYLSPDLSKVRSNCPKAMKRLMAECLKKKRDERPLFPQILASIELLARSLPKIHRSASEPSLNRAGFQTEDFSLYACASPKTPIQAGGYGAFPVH
C-Raf kinase (SEQ. ID NO: 3), sequence (P04049 307-648 Y340D/Y341D): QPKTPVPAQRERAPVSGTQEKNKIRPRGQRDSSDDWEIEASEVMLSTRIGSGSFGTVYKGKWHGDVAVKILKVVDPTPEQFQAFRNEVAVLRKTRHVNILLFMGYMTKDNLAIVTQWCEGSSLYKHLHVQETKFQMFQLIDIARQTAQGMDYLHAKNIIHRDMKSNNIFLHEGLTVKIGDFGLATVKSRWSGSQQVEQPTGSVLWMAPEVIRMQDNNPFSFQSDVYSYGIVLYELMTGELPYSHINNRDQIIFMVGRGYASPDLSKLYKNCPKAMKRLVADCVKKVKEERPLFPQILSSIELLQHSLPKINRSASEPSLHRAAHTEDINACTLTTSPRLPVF

Compound: Cc1ccc(NC(=O)c2cccc(C(C)(C)C#N)c2)cc1-c1cccc(-c2cc(NC(=O)C3CC3)ncn2)c1 [Example 174]
- IC50 [1]: ≤ 100 nM
- IC50 (A375 cells): ≤ 100 nM
- IC50 [2]: ≤ 100 nM
- IC50 (WM3928 cells): ≤ 100 nM

Compound: CNC(=O)c1cc(-c2nccc(-c3cc(NC(=O)c4ccnc(C5(C#N)CC5)c4)ccc3C)n2)ccn1 [Example 175]
- IC50 [1]: ≤ 100 nM
- IC50 (A375 cells): 100 to 500 nM
- IC50 [2]: ≤ 100 nM
- IC50 (WM3928 cells): ≤ 100 nM

Compound: CNC(=O)c1cc(-c2cc(-c3cc(NC(=O)c4ccnc(C(C)(C)C#N)c4)c(F)cc3C)ccn2)ccn1 [Example 176]
- IC50 [1]: ≤ 100 nM
- IC50 (A375 cells): ≤ 100 nM
- IC50 [2]: ≤ 100 nM
- IC50 (WM3928 cells): ≤ 100 nM

Compound: CNC(=O)c1cc(-c2ccnc(-c3cc(NC(=O)c4ccnc(C(C)(C)C#N)c4)ccc3C)n2)ccn1 [Example 177]
- IC50 [1]: ≤ 100 nM
- IC50 (A375 cells): 100 to 500 nM
- IC50 [2]: ≤ 100 nM
- IC50 (WM3928 cells): ≤ 100 nM

Compound: CNC(=O)c1cc(-c2cc(-c3cc(NC(=O)c4ccnc(C5(C#N)CC5)c4)ccc3C)ncn2)ccn1 [Example 178]
- IC50 [1]: ≤ 100 nM
- IC50 (A375 cells): 100 to 500 nM
- IC50 [2]: ≤ 100 nM
- IC50 (WM3928 cells): ≤ 100 nM

Compound: Cc1cc(F)c(NC(=O)c2ccnc(C(C)(C)C#N)c2)cc1-c1ccnc(-c2ccnc(NC(=O)C3CC3)c2)n1 [Example 179]
- IC50 [1]: ≤ 100 nM
- IC50 (A375 cells): ≤ 100 nM
- IC50 [2]: ≤ 100 nM
- IC50 (WM3928 cells): ≤ 100 nM

Compound: Cc1ccc(NC(=O)c2ccnc(C3(C#N)CC3)c2)cc1-c1ccnc(-c2ccnc(NC(=O)C3CC3)c2)n1 [Example 180]
- IC50 [1]: ≤ 100 nM
- IC50 (A375 cells): ≤ 100 nM
- IC50 [2]: ≤ 100 nM
- IC50 (WM3928 cells): ≤ 100 nM

Compound: Cc1ncc(NC(=O)c2ccnc(C(C)(C)C#N)c2)cc1-c1cccc(-c2cc(NC(=O)C3CC3)ncn2)c1 [Example 181]
- IC50 [1]: ≤ 100 nM
- IC50 (A375 cells): ≤ 100 nM
- IC50 [2]: ≤ 100 nM
- IC50 (WM3928 cells): ≤ 100 nM

Compound: CCC(=O)Nc1cc(-c2cccc(-c3cc(NC(=O)c4ccnc(C(C)(C)C#N)c4)cnc3C)n2)ccn1 [Example 182]
- IC50 [1]: ≤ 100 nM
- IC50 (A375 cells): 100 to 500 nM
- IC50 [2]: ≤ 100 nM
- IC50 (WM3928 cells): ≤ 100 nM

Compound: Cc1ccc(NC(=O)c2ccnc(C3CC3)c2)cc1-c1cncc(-c2ccnc(NC(=O)C3CC3)c2)n1 [Example 184]
- IC50 [1]: ≤ 100 nM
- IC50 (A375 cells): ≤ 100 nM
- IC50 [2]: ≤ 100 nM
- IC50 (WM3928 cells): ≤ 100 nM
